Source: patent US12263172B2, “Toll-like receptor agonists for use in the treatment of hepatitis b” (priority 2019, dated 2025)

Assays:
[1] = 14- and 28-day toxicity study in monkeys; type: in vivo; conditions: 3, 15, and 100 mg/kg biw
Text: Exposure increased more than dose-proportionally at low doses. Variability in exposure was high. • In vitro plasma protein binding was between 79.6% and 94.2% in animals and humans. Volume of distribution after intravenous dosing was high. […] Main metabolic pathways were oxygenation, hydrogenation, dehydrogenation, dealkylation, acetylation, glucuronidation, and/or glutathione conjugation. • In rats, >80% of drug-related material was found in feces, 11% to 20% in bile, and <4% in urine. […] There were no effects on embryofetal development up to 1 mg/kg/dose in rats and 30 mg/kg/dose in rabbits.

[2] = system: cytokines and ISGs (ISG15, MX1, OAS1); assay: Phase 1 single oral dose pharmacodynamics (serum cytokines, whole blood ISGs) in healthy adults; type: in vivo, human
Description: IFN-α was assessed by an enzyme-linked immunosorbent assay; 13 other cytokines (granulocyte colony stimulating factor [GCSF], granulocyte macrophage colony stimulating factor [GMCSF], IFN-γ, IFN-γ-induced protein 10 [IP-10], interleukin [IL] 1β, IL-1 receptor antagonist [IL-1 RA], IL-10, IL-12 subunit P40, IL-6, IL-8, macrophage inflammatory protein 1β [MIP-1β], monocyte chemotactic protein 1 [MCP-1], and tumour necrosis factor [TNF]) were analysed by the appropriate Luminex assays. ISG expression analysis was conducted for three genes, ISG15, MX1 and OAS1 using quantitative polymerase chain reaction. Descriptive statistics were used to summarise PD parameters over time, and relative fold-changes from baseline values were calculated. Serum levels of IFN-α were measured by ELISA. Serum levels of IP-10, IFN-γ, TNF-α, IL-12 (subunit P40), IL-6, IL-1β, IL-1RA, IL-18, MCP-1, MIP-1β, G-CSF, GM-CSF, IL-10, IL-15 were measured by Luminex xMAP technology. The LLOQ for IFN-α was determined at 12.5 pg/mL and at 25 pg/mL for all other cytokines measured. Fold changes for each of the cytokines were calculated compared to predose values or LLOQ-1 values if predose values were below LLOQ. IFN-stimulated gene (ISG) expression analysis was conducted for 3 genes, ISG15, MX1, and OAS1, using quantitative polymerase chain reaction (qPCR) on collected whole blood samples. For the ISGs, relative fold changes from baseline were calculated according to the delta delta Cycle threshold (Ct) method (2^[Delta Delta Ct]). Assessments were done for Part 1 predose and postdose: 1.5 hours, 6 hours, 12 hours (Day 1), 24 hours (day 2), 48 hours (Day 3), 96 hours (Day 5), follow-up Week 2. For the Part 2, assessments were done predose and post the first and fourth dose: 2 hours, 4 hours, 12 hours, 24 hours, 48 hours, 96 hours and one week follow-up; and post the second and third doses: 12 hours and 48 hours.

[3] = single dose 0.6 mg, 12 hours post dosing

CCCCOc1nc(N)c2[nH]cc(Cc3ccc(CN4CCCC4)cc3)c2n1 [Compound 4]
brain inflammation [1]: Brain inflammation occurred | number of the 14 cytokines evaluated that increased ≥2-fold versus baseline (IFN-α, IP-10, IL-1 RA, MCP-1, IL-6) ([2]; single dose): 5 | time within which cytokine levels and ISG expression peaked ([2]; single dose): 12 to 24 h | induction of ISGs or cytokines ([2]; single dose 0.2 mg): No relevant induction of ISGs or cytokines | participants with ≥2 relative fold increase in ISG15 expression from baseline in the first 96 hours ([2]; single dose 0.2 mg fasted): 0 n (%) | participants with ≥2 relative fold increase in MX1 expression from baseline in the first 96 hours ([2]; single dose 0.2 mg fasted): 1 (20.0%) n (%) | participants with ≥2 relative fold increase in OAS1 expression from baseline in the first 96 hours ([2]; single dose 0.2 mg fasted): 0 n (%) | subjects with ≥2-fold change from baseline in GCSF within 96 hours ([2]; single dose 0.2 mg fasted): 0 n (%) | subjects with ≥2-fold change from baseline in GMCSF within 96 hours ([2]; single dose 0.2 mg fasted): 0 n (%) | subjects with ≥2-fold change from baseline in IFN-α within 96 hours ([2]; single dose 0.2 mg fasted): 0 n (%) | subjects with ≥2-fold change from baseline in IFN-γ within 96 hours ([2]; single dose 0.2 mg fasted): 0 n (%) | subjects with ≥2-fold change from baseline in IL-1RA within 96 hours ([2]; single dose 0.2 mg fasted): 0 n (%) | subjects with ≥2-fold change from baseline in IL-1β within 96 hours ([2]; single dose 0.2 mg fasted): 0 n (%) | subjects with ≥2-fold change from baseline in IL-6 within 96 hours ([2]; single dose 0.2 mg fasted): 1 (20.0%) n (%) | subjects with ≥2-fold change from baseline in IL-8 within 96 hours ([2]; single dose 0.2 mg fasted): 0 n (%) | subjects with ≥2-fold change from baseline in IL-10 within 96 hours ([2]; single dose 0.2 mg fasted): 0 n (%) | subjects with ≥2-fold change from baseline in IL-12 subunit P40 within 96 hours ([2]; single dose 0.2 mg fasted): 0 n (%) | subjects with ≥2-fold change from baseline in IP-10 within 96 hours ([2]; single dose 0.2 mg fasted): 0 n (%) | subjects with ≥2-fold change from baseline in MCP-1 within 96 hours ([2]; single dose 0.2 mg fasted): 0 n (%) | subjects with ≥2-fold change from baseline in MIP-1β within 96 hours ([2]; single dose 0.2 mg fasted): 0 n (%) | subjects with ≥2-fold change from baseline in TNF-α within 96 hours ([2]; single dose 0.2 mg fasted): 0 n (%) | treated subjects with ≥2-fold increase from baseline for all 3 ISGs within the first 96 hours ([2]; single dose 0.6 mg): Five of 6 | participants with ≥2 relative fold increase in ISG15 expression from baseline in the first 96 hours ([2]; single dose 0.6 mg fasted): 5 (83.3%) n (%) | participants with ≥2 relative fold increase in MX1 expression from baseline in the first 96 hours ([2]; single dose 0.6 mg fasted): 5 (83.3%) n (%) | participants with ≥2 relative fold increase in OAS1 expression from baseline in the first 96 hours ([2]; single dose 0.6 mg fasted): 5 (83.3%) n (%) | subjects with ≥2-fold change from baseline in GCSF within 96 hours ([2]; single dose 0.6 mg fasted): 1 (16.7%) n (%) | subjects with ≥2-fold change from baseline in GMCSF within 96 hours ([2]; single dose 0.6 mg fasted): 0 n (%) | subjects with ≥2-fold change from baseline in IFN-α within 96 hours ([2]; single dose 0.6 mg fasted): 0 n (%) | subjects with ≥2-fold change from baseline in IFN-γ within 96 hours ([2]; single dose 0.6 mg fasted): 0 n (%) | subjects with ≥2-fold change from baseline in IL-1RA within 96 hours ([2]; single dose 0.6 mg fasted): 0 n (%) | subjects with ≥2-fold change from baseline in IL-1β within 96 hours ([2]; single dose 0.6 mg fasted): 0 n (%) | subjects with ≥2-fold change from baseline in IL-6 within 96 hours ([2]; single dose 0.6 mg fasted): 0 n (%) | subjects with ≥2-fold change from baseline in IL-8 within 96 hours ([2]; single dose 0.6 mg fasted): 0 n (%) | subjects with ≥2-fold change from baseline in IL-10 within 96 hours ([2]; single dose 0.6 mg fasted): 0 n (%) | subjects with ≥2-fold change from baseline in IL-12 subunit P40 within 96 hours ([2]; single dose 0.6 mg fasted): 0 n (%) | subjects with ≥2-fold change from baseline in MIP-1β within 96 hours ([2]; single dose 0.6 mg fasted): 0 n (%) | subjects with ≥2-fold change from baseline in TNF-α within 96 hours ([2]; single dose 0.6 mg fasted): 0 n (%) | maximum concentration of IP-10 [2, 3]: 1,322.0 pg/mL | maximum concentration of MCP-1 [2, 3]: 878.2 pg/mL | increased expression of cytokines and ISGs, fed versus fasted state ([2]; single dose 1.25 mg): less frequently observed in the 1.25 mg fed state than in the fasted state | treated subjects with ≥2-fold increase from baseline for all 3 ISGs within the first 96 hours ([2]; single dose 1.25 mg): all treated subjects | participants with ≥2 relative fold increase in ISG15 expression from baseline in the first 96 hours ([2]; single dose 1.25 mg fasted): 8 (100%) n (%) | participants with ≥2 relative fold increase in MX1 expression from baseline in the first 96 hours ([2]; single dose 1.25 mg fasted): 8 (100%) n (%) | participants with ≥2 relative fold increase in OAS1 expression from baseline in the first 96 hours ([2]; single dose 1.25 mg fasted): 8 (100%) n (%) | subjects with IFN-α levels 100 pg/mL coinciding with flu-like AEs and low lymphocytes ([2]; single dose 1.25 mg fasted): 3 of 8 | subjects with ≥2-fold change from baseline in GCSF within 96 hours ([2]; single dose 1.25 mg fasted): 1 (12.5%) n (%) | subjects with ≥2-fold change from baseline in GMCSF within 96 hours ([2]; single dose 1.25 mg fasted): 0 n (%) | subjects with ≥2-fold change from baseline in IFN-γ within 96 hours ([2]; single dose 1.25 mg fasted): 2 (25.0%) n (%) | subjects with ≥2-fold change from baseline in IL-1β within 96 hours ([2]; single dose 1.25 mg fasted): 0 n (%) | subjects with ≥2-fold change from baseline in IL-6 within 96 hours ([2]; single dose 1.25 mg fasted): 1 (12.5%) n (%) | subjects with ≥2-fold change from baseline in IL-8 within 96 hours ([2]; single dose 1.25 mg fasted): 0 n (%) | subjects with ≥2-fold change from baseline in IL-10 within 96 hours ([2]; single dose 1.25 mg fasted): 0 n (%) | subjects with ≥2-fold change from baseline in IL-12 subunit P40 within 96 hours ([2]; single dose 1.25 mg fasted): 0 n (%) | subjects with ≥2-fold change from baseline in MIP-1β within 96 hours ([2]; single dose 1.25 mg fasted): 0 n (%) | subjects with ≥2-fold change from baseline in TNF-α within 96 hours ([2]; single dose 1.25 mg fasted): 0 n (%) | treated females with 2-fold increase in IFN-α ([2]; single dose 1.25 mg fasted): 2 of the 3 | treated male subjects with 2-fold increase in IFN-α ([2]; single dose 1.25 mg fasted): 2 out of 5 | IFNα levels in subjects with increase, range ([2]; single dose 1.25 mg fasted, 4/8 subjects): 63 to 533 pg/mL | increase in IFN-α in the fed state among the 3 subjects with increase in the fasted state ([2]; single dose 1.25 mg fed): none showed an increase in IFN-α in the fed state | treated male subjects with ≥2-fold increase in IFN-α ([2]; single dose 1.8 mg): 1 of the 5 | treated subjects with ≥2-fold increase from baseline for all 3 ISGs within the first 96 hours ([2]; single dose 1.8 mg): all treated subjects | participants with ≥2 relative fold increase in ISG15 expression from baseline in the first 96 hours ([2]; single dose 1.8 mg fasted): 6 (100%) n (%) | participants with ≥2 relative fold increase in MX1 expression from baseline in the first 96 hours ([2]; single dose 1.8 mg fasted): 6 (100%) n (%) | participants with ≥2 relative fold increase in OAS1 expression from baseline in the first 96 hours ([2]; single dose 1.8 mg fasted): 6 (100%) n (%) | subjects with IFN-α levels 100 pg/mL coinciding with flu-like AEs and low lymphocytes ([2]; single dose 1.8 mg fasted): 2 of 6 | subjects with ≥2-fold change from baseline in GCSF within 96 hours ([2]; single dose 1.8 mg fasted): 0 n (%) | subjects with ≥2-fold change from baseline in GMCSF within 96 hours ([2]; single dose 1.8 mg fasted): 0 n (%) | subjects with ≥2-fold change from baseline in IFN-γ within 96 hours ([2]; single dose 1.8 mg fasted): 2 (33.3%) n (%) | subjects with ≥2-fold change from baseline in IL-1β within 96 hours ([2]; single dose 1.8 mg fasted): 0 n (%) | subjects with ≥2-fold change from baseline in IL-6 within 96 hours ([2]; single dose 1.8 mg fasted): 1 (16.7%) n (%) | subjects with ≥2-fold change from baseline in IL-8 within 96 hours ([2]; single dose 1.8 mg fasted): 0 n (%) | subjects with ≥2-fold change from baseline in IL-10 within 96 hours ([2]; single dose 1.8 mg fasted): 0 n (%) | subjects with ≥2-fold change from baseline in IL-12 subunit P40 within 96 hours ([2]; single dose 1.8 mg fasted): 0 n (%) | subjects with ≥2-fold change from baseline in MIP-1β within 96 hours ([2]; single dose 1.8 mg fasted): 0 n (%) | subjects with ≥2-fold change from baseline in TNF-α within 96 hours ([2]; single dose 1.8 mg fasted): 0 n (%) | time within which cytokine levels and ISG expression returned to baseline ([2]; single dose, post-administration): 48 to 96 h | time of return to baseline after dosing ([2]; two highest fasted dose groups): approximately 96 hours
